Reference: ChEMBL document CHEMBL1136696, “Azalide 3,6-ketals: antibacterial activity and structure-activity relationships of aryl and hetero aryl substituted analogues” (Bioorg Med Chem Lett, 2003)
≈ marks a conversion by molar mass, not a printed value.

Assays:
Format in all cases: functional
Escherichia coli = assay: In vitro antibacterial activity against Escherichia coli 51A0150
Pasteurella multocida = assay: In vitro antibacterial activity against Pasteurella multocida 59A0067
Staphylococcus aureus = assay: In vitro antibacterial activity against Staphylococcus aureus 01A0758

MIC (Escherichia coli) | MIC (Pasteurella multocida) | MIC (Staphylococcus aureus) | SMILES
6.25 µg/mL (≈ 8.03 µM) | 0.2 µg/mL (≈ 0.257 µM) | 1.56 µg/mL (≈ 2.01 µM) | CC[C@H]1OC(=O)[C@H](C)[C@H]2OC3(CCN(c4ccc(C(N)=O)cn4)CC3)O[C@](C)(C[C@@H](C)CN[C@H](C)[C@@H](O)[C@]1(C)O)[C@H](O[C@@H]1O[C@H](C)CC(N(C)C)[C@H]1O)[C@H]2C (stereo partly drawn)
0.78 µg/mL (≈ 0.976 µM) | 0.2 µg/mL (≈ 0.25 µM) | 1.56 µg/mL (≈ 1.95 µM) | CC[C@H]1OC(=O)[C@H](C)[C@H]2OC3(CCN(c4cc(CO)cc(Cl)n4)CC3)O[C@](C)(C[C@@H](C)CN[C@H](C)[C@@H](O)[C@]1(C)O)[C@H](O[C@@H]1O[C@H](C)CC(N(C)C)[C@H]1O)[C@H]2C (stereo partly drawn)
1.56 µg/mL (≈ 1.98 µM) | 0.1 µg/mL (≈ 0.127 µM) | 3.13 µg/mL (≈ 3.97 µM) | CC[C@H]1OC(=O)[C@H](C)[C@H]2OC3(CCN(c4nc5ccccc5[nH]4)CC3)O[C@](C)(C[C@@H](C)CN(C)[C@H](C)[C@@H](O)[C@]1(C)O)[C@H](O[C@@H]1O[C@H](C)CC(N(C)C)[C@H]1O)[C@H]2C (stereo partly drawn)
3.13 µg/mL (≈ 3.94 µM) | 0.1 µg/mL (≈ 0.126 µM) | 1.56 µg/mL (≈ 1.96 µM) | CC[C@H]1OC(=O)[C@H](C)[C@H]2OC3(CCN(c4ccc([N+](=O)[O-])c(N)n4)CC3)O[C@](C)(C[C@@H](C)CN[C@H](C)[C@@H](O)[C@]1(C)O)[C@H](O[C@@H]1O[C@H](C)CC(N(C)C)[C@H]1O)[C@H]2C (stereo partly drawn)
> 50 µg/mL | 1.56 µg/mL (≈ 1.72 µM) | 3.13 µg/mL (≈ 3.45 µM) | CC[C@H]1OC(=O)[C@H](C)[C@H]2OC3(CCN(c4ccc(S(=O)(=O)c5ccc(F)cc5)cc4)CC3)O[C@](C)(C[C@@H](C)CN(C)[C@H](C)[C@@H](O)[C@]1(C)O)[C@H](O[C@@H]1O[C@H](C)CC(N(C)C)[C@H]1O)[C@H]2C (stereo partly drawn)
6.25 µg/mL (≈ 7.87 µM) | 0.39 µg/mL (≈ 0.491 µM) | 3.13 µg/mL (≈ 3.94 µM) | CC[C@H]1OC(=O)[C@H](C)[C@H]2OC3(CCN(c4ccc([N+](=O)[O-])cn4)CC3)O[C@](C)(C[C@@H](C)CN(C)[C@H](C)[C@@H](O)[C@]1(C)O)[C@H](O[C@@H]1O[C@H](C)CC(N(C)C)[C@H]1O)[C@H]2C (stereo partly drawn)
6.25 µg/mL (≈ 7.92 µM) | 0.78 µg/mL (≈ 0.989 µM) | 3.13 µg/mL (≈ 3.97 µM) | CC[C@H]1OC(=O)[C@H](C)[C@H]2OC3(CCN(c4nc5ccccc5o4)CC3)O[C@](C)(C[C@@H](C)CN(C)[C@H](C)[C@@H](O)[C@]1(C)O)[C@H](O[C@@H]1O[C@H](C)CC(N(C)C)[C@H]1O)[C@H]2C (stereo partly drawn)
3.13 µg/mL (≈ 3.29 µM) | 0.39 µg/mL (≈ 0.41 µM) | 0.78 µg/mL (≈ 0.821 µM) | CC[C@H]1OC(=O)[C@H](C)[C@H]2OC3(CCN(c4ccc(C(=O)OCc5ccccc5)c(C(F)(F)F)c4)CC3)O[C@](C)(C[C@@H](C)CN(C)[C@H](C)[C@@H](O)[C@]1(C)O)[C@H](O[C@@H]1O[C@H](C)CC(N(C)C)[C@H]1O)[C@H]2C (stereo partly drawn)
> 50 µg/mL | > 50 µg/mL | 1.56 µg/mL (≈ 1.81 µM) | CC[C@H]1OC(=O)[C@H](C)[C@H]2OC3(CCN(c4nc(Cl)nc(-c5ccccc5)n4)CC3)O[C@](C)(C[C@@H](C)CN(C)[C@H](C)[C@@H](O)[C@]1(C)O)[C@H](O[C@@H]1O[C@H](C)CC(N(C)C)[C@H]1O)[C@H]2C (stereo partly drawn)
6.25 µg/mL (≈ 7.72 µM) | 0.39 µg/mL (≈ 0.481 µM) | 1.56 µg/mL (≈ 1.93 µM) | CC[C@H]1OC(=O)[C@H](C)[C@H]2OC3(CCN(c4cc(OC)nc(OC)n4)CC3)O[C@](C)(C[C@@H](C)CN(C)[C@H](C)[C@@H](O)[C@]1(C)O)[C@H](O[C@@H]1O[C@H](C)CC(N(C)C)[C@H]1O)[C@H]2C (stereo partly drawn)
3.13 µg/mL (≈ 4.1 µM) | 0.2 µg/mL (≈ 0.262 µM) | 6.25 µg/mL (≈ 8.18 µM) | CC[C@H]1OC(=O)[C@H](C)[C@H]2OC3(CCN(c4ccc(C)nn4)CC3)O[C@](C)(C[C@@H](C)CN(C)[C@H](C)[C@@H](O)[C@]1(C)O)[C@H](O[C@@H]1O[C@H](C)CC(N(C)C)[C@H]1O)[C@H]2C (stereo partly drawn)
25 µg/mL (≈ 32.3 µM) | 0.39 µg/mL (≈ 0.505 µM) | 3.13 µg/mL (≈ 4.05 µM) | CC[C@H]1OC(=O)[C@H](C)[C@H]2OC3(CCN(c4ccc(C#N)cc4)CC3)O[C@](C)(C[C@@H](C)CN(C)[C@H](C)[C@@H](O)[C@]1(C)O)[C@H](O[C@@H]1O[C@H](C)CC(N(C)C)[C@H]1O)[C@H]2C (stereo partly drawn)
3.13 µg/mL (≈ 3.89 µM) | 0.78 µg/mL (≈ 0.97 µM) | 1.56 µg/mL (≈ 1.94 µM) | CC[C@H]1OC(=O)[C@H](C)[C@H]2OC3(CCN(c4nccc(C(F)(F)F)n4)CC3)O[C@](C)(C[C@@H](C)CN[C@H](C)[C@@H](O)[C@]1(C)O)[C@H](O[C@@H]1O[C@H](C)CC(N(C)C)[C@H]1O)[C@H]2C (stereo partly drawn)
12.5 µg/mL (≈ 16.4 µM) | 1.56 µg/mL (≈ 2.04 µM) | 6.35 µg/mL (≈ 8.32 µM) | CC[C@H]1OC(=O)[C@H](C)[C@H]2OC3(CCN(c4ccc(N)cc4)CC3)O[C@](C)(C[C@@H](C)CN(C)[C@H](C)[C@@H](O)[C@]1(C)O)[C@H](O[C@@H]1O[C@H](C)CC(N(C)C)[C@H]1O)[C@H]2C (stereo partly drawn)
> 50 µg/mL | > 50 µg/mL | 1.17 µg/mL (≈ 1.23 µM) | CC[C@H]1OC(=O)[C@H](C)[C@H]2OC3(CCN(c4ncc(C(=O)OCc5ccccc5)c(C(F)(F)F)n4)CC3)O[C@](C)(C[C@@H](C)CN(C)[C@H](C)[C@@H](O)[C@]1(C)O)[C@H](O[C@@H]1O[C@H](C)CC(N(C)C)[C@H]1O)[C@H]2C (stereo partly drawn)
> 50 µg/mL | 3.13 µg/mL (≈ 3.53 µM) | 0.39 µg/mL (≈ 0.44 µM) | CC[C@H]1OC(=O)[C@H](C)[C@H]2OC3(CCN(c4ccc(C(=O)OCc5ccccc5)cc4F)CC3)O[C@](C)(C[C@@H](C)CN[C@H](C)[C@@H](O)[C@]1(C)O)[C@H](O[C@@H]1O[C@H](C)CC(N(C)C)[C@H]1O)[C@H]2C (stereo partly drawn)
